Earlier results in patent US11779012B2, “Compositions and methods for preserving red blood cells and platelets” (RythRx Therapeutics, LLC, priority 2013, dated 2023).

What was measured:
[1] = biological target: pleckstrin homology (PH) domain of Akt (Homo sapiens, UniProt P31749); conditions: binding to PH domain of Akt
[2] = after intravenous administration

Sequence of pleckstrin homology (PH) domain of Akt (P31749 5-108 limits assumed): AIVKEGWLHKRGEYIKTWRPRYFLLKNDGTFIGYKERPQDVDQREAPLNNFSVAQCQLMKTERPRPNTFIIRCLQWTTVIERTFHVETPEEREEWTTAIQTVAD

In the case of CN1N=C(N)c2cn([C@@H]3O[C@H](COP(=O)(O)O)[C@@H](O)[C@H]3O)c3ncnc1c23 [TCNP, ((2R,3S,4R,5R)-5-(3-amino-5-methyl-1,4,5,6,8-pentaazaacenaphthylen-1(5H)-yl)-3,4-dihydroxytetrahydrofuran-2-yl)methyl dihydrogen phosphate], the Kd [1] is given as 690 nM and the “half-life (retention of TCNP in human RBC)” value [2] is given as 89 h.
